Measurements from the NIST ThermoML archive (doi:10.1016/j.fluid.2005.03.014).

Key:
[1] = refractive index (Na D-line) (dimensionless); settings: 298.15 K; 101.33 kPa; Liquid; Standard Abbe refractometry
[2] = Liquid; for mass density: 298.15 K, 101.33 kPa

CC(C)CO [2-methyl-1-propanol]
Settings | mass density [kg/m3] | refractive index
[1] | – | 1.3937
[2] | 797.83 | –

CC(=O)OCC(C)C [2-methylpropyl ethanoate]
Settings | mass density [kg/m3] | refractive index
[1] | – | 1.3876
[2] | 866.12 | –

CN(C)C=O [dimethylformamide]
Settings | mass density [kg/m3] | refractive index
[1] | – | 1.4265
[2] | 948.72 | –

[2]
Settings | vapor or sublimation pressure [kPa]
345.45 K | 6.3
350.38 K | 7.81
354.51 K | 9.27
359.05 K | 11.16
362.74 K | 12.93
366.7 K | 15.07
370.69 K | 17.53
374.89 K | 20.48
379.24 K | 23.95
382.97 K | 27.32
386.75 K | 31.1
390.07 K | 34.78
393.2 K | 38.56
396.61 K | 43.04
399.91 K | 47.82
403.1 K | 52.73
405.94 K | 57.53
408.79 K | 62.66
411.23 K | 67.37
413.35 K | 71.68
415.66 K | 76.65
417.84 K | 81.58
419.86 K | 86.33
421.87 K | 91.37
423.7 K | 96.06
425.6 K | 101.2
